Laboratory results: PMC12476087, “Loading of Dicarboxylatoplatinum(II)‐NHC Complexes in Bacterial Ghosts as an Advanced Development in Cancer Therapy” (Archiv Der Pharmazie, 2025)

How the values were obtained:
A2780cis cells = test: MTT assay, A2780cis cells; format: cell-based; conditions: for IC50: 72 h exposure; for Resistance factor RF = IC50(A2780cis)/IC50(A2780wt): 72 h
Description: Carboplatin, a second‐generation platinum drug commonly used as part of standard first‐line chemotherapy for ovarian carcinoma, was examined as a reference compound due to its clinical relevance. Additionally, the nonmalignant bone marrow stromal cell line HS‐5 was included as a control to assess specificity of the complexes toward cancer cells.
Unloaded BGs (4 × 10^8 EcN or 2 × 10^8 Ec NM522, which is equivalent to the highest tested BG concentration) were tested as controls.
The exponentially growing cells were seeded at a density of 8 × 10^3 cells/well (A2780wt/cis) or 1 × 10^4 cells/well (HS‐5), respectively, into clear flat‐bottom 96‐well plates in triplicates. […] After another 72 h of incubation, the cellular metabolic activity was measured as an indicator of cell viability employing an MTT assay. Hereby, 20 µL of a 5 mg/mL MTT solution was added to each well, respectively. After 3 h of incubation, the medium was discarded, and the formazan crystals formed were dissolved in DMSO for 15 min with gentle shaking. […] The OD at 620 nm was subtracted from the OD at 595 nm. The OD of the medium was subtracted to exclude the unspecific staining caused by FCS‐containing medium. Cells treated with vehicle control (0.1% DMF) only were set at 100% metabolic activity. The IC50 values were calculated with Prism 8.0 (GraphPad Software Inc., Boston, MA, USA) using nonlinear regression. Significance was evaluated via a one sample t‐test performed with Prism 8.0.

Water solubility = format: physicochemical
A2780wt cells [1] = test: Comet assay (intracellular DNA damage); format: cell-based; conditions: 50 µM, 48 h incubation
Description: Given that platinum‐based drugs are known to commonly induce DNA damage, a comet assay was conducted using A2780wt cells. This assay detects DNA damage such as DNA single/double strand breaks and DNA fragmentation, a common feature of apoptosis. […] DMF (0.1%)‐treated cells were used as a negative control to establish baseline DNA integrity.
Cellular DNA damage can be visualized by employing a comet assay, which is a single cell gel electrophoresis assay. Hereby, A2780wt cells were seeded at a density of 2 × 10^6 into 25 cm^2 flasks. After letting the cells adhere for 24 h in a humidified atmosphere, the cell culture medium was exchanged for medium containing the respective compound. The cells were then incubated for 48 h with the platinum complexes or 4 h with etoposide, respectively. After incubation, the cell growth was stopped by removing the compound‐containing medium, washing the cells with phosphate‐buffered saline (PBS) and detaching them with a rubber policeman. The detached cells were then centrifuged at 700g for 2 min and the resulting pellet was then washed with 5 mL of PBS. After that, the cells were adjusted to a concentration of 1 × 10^6 cells/mL and were resuspended in ice cold PBS. A total of 75 µL of liquified agarose per condition was transferred onto the slide to create a base layer. This base layer was solidified by transferring the slide to 4°C for 15 min. Afterwards, 10 µL of the above‐mentioned cell suspension in PBS were mixed with 90 µL of agarose. A total of 75 µL of this was added to each base layer, respectively. This layer was also allowed to solidify at 4°C for 15 min. The slide was then transferred to a small basin which contained pre‐chilled lysis buffer (14.6 g NaCl, 20 mL EDTA solution, 10 mL lysis solution, 10 mL DMSO, 60 mL deionized H2O), where it remained for 45 min in the dark at 4°C. The lysis buffer was then aspirated and exchanged with a pre‐chilled alkaline solution (1.2 g NaOH, 0.2 mL EDTA solution, 100 mL deionized H2O), where it remained for further 30 min in the dark at 4°C. The slide was then transferred to a horizontal electrophoresis chamber which was filled with cold alkaline solution. The electrophoresis conditions were set to 1.5 V/cm and 300 mA for 20 min. After the electrophoresis, the slide was transferred into a small basin containing pre‐chilled, deionized H2O. After 2 min, the water was aspirated and this washing step was repeated twice more. After the final rinse, the slide was submerged in 70% ethanol for 5 min. Once the slide has dried, 100 µL of diluted Vista Green DNA Dye was added to each well. After 15 min of incubation, the slides were analyzed on an IX‐70 epifluorescence microscope (Olympus, Shinjuku, Japan) using a FITC filter.

A2780wt cells [2] = test: Cellular platinum accumulation (HR CS AAS); format: cell-based; conditions: free complex, 25 µM, 24 h
Description: Stock solutions of the platinum complexes in DMF were freshly prepared and the stocks for the loaded compounds were freshly thawed. […] Cell pellets were prepared by removing the medium, washing twice with PBS, and detaching the cells with accutase (GE Healthcare, Chicago, IL, USA). Subsequently, cells were pelleted by centrifugation (4°C, 380g, 3 min). Each pellet was twice washed with PBS and then stored at −20°C until further analyses.
Cellular accumulation was quantified by measuring the total platinum content using HR CS AAS. […] The resulting lysates were analyzed using AAS at the wavelength λ = 265.9450 nm with a high resolution continuous source (HR CS) spectrometer (contrAA 700; Analytik Jena, Jena, Germany). The ASpect CS software (version 2.3.1.0; Analytik Jena, Jena, Germany) was used to handle the spectrometer. The graphite furnace (GF) sub‐technique was used for this. In the latter, atomization takes place electrothermally in pyrolytically coated graphite tubes bearing an integrated platform (Analytik Jena, Jena, Germany). The GF program is outlined in Supporting Information S2: Table S8. The samples stored in polystyrene vials (0.5 mL; Gesellschaft für Analysentechnik, Salzwedel, Germany) were injected onto this platform employing an MPE 60 autosampler (Analytik Jena, Jena, Germany). As the purge and the protective gas served argon (Alphagaz 1, 99.999%, Air Liquide, Düsseldorf, Germany). The mean integrated absorbance of three injections was adduced during all measurements. […] As the degree of cellular accumulation is indicated as amount of compound (pmol) in the cell lysate relative to its protein mass (mg), the protein content of each sample was determined. Therefore, the method described by Bradford was used. […] Each 20 µL of either albumin standards or the cell lysates were pipetted into a 96‐well plate (Sarstedt, Nürmbrecht, Germany), followed by adding 200 µL of Bradford's reagent (Roti‐Nanoquant, Carl Roth, Karlsruhe, Germany; diluted 1:5 with ultrapure water). After incubating (5 min, rt), the absorbance (λ = 595 nm) was read with a microplate reader (Tecan Infinite M 1000 Pro, Männedorf, Switzerland). All calibration standards and lysates were measured in duplicates.

Compound | IC50 (A2780cis cells) | water solubility (Water solubility) | intracellular DNA damage (comet formation) (A2780wt cells [1]) | uptake into A2780wt cells (total cellular platinum content) (A2780wt cells [2]) | Resistance factor RF = IC50(A2780cis)/IC50(A2780wt) (A2780cis cells)
CCN1[C]([Pt]([O]C(=O)C(Cl)Cl)([O]C(=O)C(Cl)Cl)[SH](C)(C)=O)N(CC)c2ccccc21 [Compound 3, (SP‐4‐2)‐Bis(dichloroacetato)(1,3‐diethylbenzimidazol‐2‐ylidene)(dimethylsulfoxide)platinum(II)] | 83.1 ± 4.79 µM | < 500 µg/mL | induced intracellular DNA damage | 1.17 pmol/µg | –
CCN1[C]([Pt]([O]C(C)=O)([O]C(C)=O)[SH](C)(C)=O)N(CC)c2ccccc21 [Compound 1, (SP‐4‐2)‐Diacetato(1,3‐diethylbenzimidazol‐2‐ylidene)(dimethylsulfoxide)platinum(II)] | 36.5 ± 2.85 µM | approximately 10 mg/mL | induced intracellular DNA damage | 1.1 pmol/µg | 1.2
(SP‐4‐2)‐Bis(dichloroacetato)bis(1,3‐diethylbenzimidazol‐2‐ylidene)platinum(II) [Compound 4] | 34.9 ± 1.7 µM | < 500 µg/mL | induced intracellular DNA damage | 1.87 pmol/µg | 0.9
(SP‐4‐2)‐Diacetatobis(1,3‐diethylbenzimidazol‐2‐ylidene)platinum(II) [Compound 2] | 39.3 ± 2.8 µM | around 3 mg/mL | did not show any evidence of comet formation | 0.82 pmol/µg | 1.0
